Target: PRMT5 (Homo sapiens (Human), UniProt O14744)
Test: PRMT5 Chemiluminescent Assay
Type: biochemical
Settings: PRMT5 chemiluminescent assay kit (BPS Bioscience), histone H4 peptide substrate, eight-point dose response
Method: The PRMT5 activity is measured by using “PRMT5 Chemiluminescent Assay Kit” from BPS Bioscience, Catalog Number 52002L as per the instructions of the manufacturer. Briefly, the PRMT5 enzyme is incubated with S-adenosylmethionine in a 96-well plate precoated with histone H4 peptide substrate. Next, a highly specific antibody that recognizes methylated R3 residue of Histone H4 is added followed by a horseradkish peroxidase-labeled (HRP-labeled) secondary antibody. Detection is done by the addition of the HRP substrate to produce chemiluminescence that can be measured quantitatively.
Compounds were serially diluted 3-fold and dosed from 10 uM down to 0 uM. Compounds were tested in duplicates to generate an eight-point dose response for the calculation of their IC50s.

Chain of PRMT5 (O14744 2-637): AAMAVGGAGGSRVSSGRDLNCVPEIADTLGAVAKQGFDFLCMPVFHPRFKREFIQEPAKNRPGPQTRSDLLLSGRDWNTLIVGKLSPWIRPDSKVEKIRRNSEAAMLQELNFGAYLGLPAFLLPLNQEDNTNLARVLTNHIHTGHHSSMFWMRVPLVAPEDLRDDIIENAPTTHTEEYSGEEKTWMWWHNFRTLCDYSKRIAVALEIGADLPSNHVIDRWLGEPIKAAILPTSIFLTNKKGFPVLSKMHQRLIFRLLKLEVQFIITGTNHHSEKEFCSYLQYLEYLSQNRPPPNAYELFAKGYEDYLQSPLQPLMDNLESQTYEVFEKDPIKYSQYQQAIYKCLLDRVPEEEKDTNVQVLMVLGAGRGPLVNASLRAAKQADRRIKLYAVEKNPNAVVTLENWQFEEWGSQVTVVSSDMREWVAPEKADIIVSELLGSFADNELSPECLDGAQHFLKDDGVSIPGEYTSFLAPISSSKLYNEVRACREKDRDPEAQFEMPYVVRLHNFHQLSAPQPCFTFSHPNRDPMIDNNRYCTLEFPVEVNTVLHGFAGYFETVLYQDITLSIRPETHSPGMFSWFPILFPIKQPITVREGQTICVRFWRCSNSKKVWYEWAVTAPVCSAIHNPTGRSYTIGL
Chain of PRMT5 (Q9BQA1 2-342 partner): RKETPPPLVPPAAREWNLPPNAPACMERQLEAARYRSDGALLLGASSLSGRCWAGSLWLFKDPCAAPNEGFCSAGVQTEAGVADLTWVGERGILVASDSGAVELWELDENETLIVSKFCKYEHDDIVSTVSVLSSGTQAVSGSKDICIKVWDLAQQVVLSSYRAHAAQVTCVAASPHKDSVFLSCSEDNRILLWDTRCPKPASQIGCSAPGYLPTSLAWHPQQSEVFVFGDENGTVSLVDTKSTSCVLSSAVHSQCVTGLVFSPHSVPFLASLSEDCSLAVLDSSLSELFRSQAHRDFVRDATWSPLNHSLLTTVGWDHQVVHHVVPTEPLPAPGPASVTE

In order of rising IC50:
1. CC(C)Cn1c(=O)n(C[C@H](O)CN2CCc3ccccc3C2)c(=O)c2ccc(Cl)cc21 [Compound 73, 7-chloro-3-[(2R)-3-(3,4-dihydro-1H-isoquinolin-2-yl)-2-hydroxy-propyl]-1-isobutyl-quinazoline-2,4-dione]  14 nM
2. Cc1ccc2c(c1)c(=O)n(C[C@H](O)CN1CCc3ccccc3C1)c(=O)n2CC1CC1 [Compound 88, 1-(cyclopropylmethyl)-3-[(2R)-3-(3,4-dihydro-1H-isoquinolin-2-yl)-2-hydroxy-propyl]-6-methyl-quinazoline-2,4-dione]  21 nM
3. O=c1[nH]c2cc(Br)ccc2c(=O)n1C[C@H](O)CN1CCc2ccccc2C1 [Compound 75, 7-bromo-3-[(2R)-3-(3,4-dihydro-1H-isoquinolin-2-yl)-2-hydroxy-propyl]-1H-quinazoline-2,4-dione]  24 nM
4. Cc1cccc2c1c(=O)n(C[C@H](O)CN1CCc3ccccc3C1)c(=O)n2CC1CC1 [Compound 85, 1-(cyclopropylmethyl)-3-[(2R)-3-(3,4-dihydro-1H-isoquinolin-2-yl)-2-hydroxy-propyl]-5-methyl-quinazoline-2,4-dione]  29 nM
5. O=c1[nH]c2cc(Cl)ccc2c(=O)n1C[C@H](O)CN1CCc2ccccc2C1 [Compound 68, 7-chloro-3-[(2R)-3-(3,4-dihydro-1H-isoquinolin-2-yl)-2-hydroxy-propyl]-1H-quinazoline-2,4-dione]  33 nM
6. COc1ccc2c(=O)n(C[C@H](O)CN3CCc4ccccc4C3)c(=O)n(CC3CC3)c2c1 [Compound 84, 1-(cyclopropylmethyl)-3-[(2R)-3-(3,4-dihydro-1H-isoquinolin-2-yl)-2-hydroxy-propyl]-7-methoxy-quinazoline-2,4-dione]  35 nM
7. O=c1c2ccc(-c3cccnc3)cc2n(CC2CC2)c(=O)n1C[C@H](O)CN1CCc2ccccc2C1 [Compound 86, 1-(cyclopropylmethyl)-3-[(2R)-3-(3,4-dihydro-1H-isoquinolin-2-yl)-2-hydroxy-propyl]-7-(3-pyridyl)quinazoline-2,4-dione]  35 nM
8. O=c1c2c(F)cccc2n(CC2CC2)c(=O)n1C[C@H](O)CN1CCc2ccccc2C1 [Compound 89, 1-(cyclopropylmethyl)-3-[(2R)-3-(3,4-dihydro-1H-isoquinolin-2-yl)-2-hydroxy-propyl]-5-fluoro-quinazoline-2,4-dione]  41 nM
9. CC(C)Cn1c(=O)n(C[C@H](O)CN2CCc3ccccc3C2)c(=O)c2cc(-c3ccc(F)cc3)ccc21 [Compound 76, 3-[(2R)-3-(3,4-dihydro-1H-isoquinolin-2-yl)-2-hydroxy-propyl]-6-(4-fluorophenyl)-1-isobutyl-quinazoline-2,4-dione]  57 nM
10. COc1ccc2c(c1)c(=O)n(C[C@H](O)CN1CCc3ccccc3C1)c(=O)n2CC1CC1 [Compound 87, 1-(cyclopropylmethyl)-3-[(2R)-3-(3,4-dihydro-1H-isoquinolin-2-yl)-2-hydroxy-propyl]-6-methoxy-quinazoline-2,4-dione]  58 nM
11. O=c1c2cc(F)ccc2n(CC2CC2)c(=O)n1C[C@H](O)CN1CCc2ccccc2C1 [Compound 77, 1-(cyclopropylmethyl)-3-[(2R)-3-(3,4-dihydro-1H-isoquinolin-2-yl)-2-hydroxy-propyl]-6-fluoro-quinazoline-2,4-dione]  63 nM
12. COc1ccc2c(=O)n(C[C@H](O)CN3CCc4ccccc4C3)c(=O)[nH]c2c1 [Compound 82, 3-[(2R)-3-(3,4-dihydro-1H-isoquinolin-2-yl)-2-hydroxy-propyl]-7-methoxy-1H-quinazoline-2,4-dione]  66 nM
13. CC(C)Cn1c(=O)n(C[C@H](O)CN2CCc3ccccc3C2)c(=O)c2cc(F)ccc21 [Compound 72, 3-[(2R)-3-(3,4-dihydro-1H-isoquinolin-2-yl)-2-hydroxy-propyl]-6-fluoro-1-isobutyl-quinazoline-2,4-dione]  70 nM
14. CC(C)Cn1c(=O)n(C[C@H](O)CN2CCc3ccccc3C2)c(=O)c2ccccc21 [Compound 102, 3-[(2R)-3-(3,4-dihydro-1H-isoquinolin-2-yl)-2-hydroxy-propyl]-1-isobutyl-quinazoline-2,4-dione]  71 nM
15. O=c1c2ccccc2n(CC2CC2(F)F)c(=O)n1C[C@H](O)CN1CCc2ccccc2C1 (stereo partly drawn) [Compound 90, 1-[(2,2-difluorocyclopropyl)methyl]-3-[(2R)-3-(3,4-dihydro-1H-isoquinolin-2-yl)-2-hydroxy-propyl]quinazoline-2,4-dione]  121 nM
16. O=c1c2ccccc2n(CCCC(F)(F)F)c(=O)n1C[C@H](O)CN1CCc2ccccc2C1 [Compound 93, 3-[(2R)-3-(3,4-dihydro-1H-isoquinolin-2-yl)-2-hydroxy-propyl]-1-(4,4,4-trifluorobutyl)quinazoline-2,4-dione]  122 nM
17. CC(C)Cn1c(=O)n(C[C@H](O)CN2CCc3ccccc3C2)c(=O)c2cc(Cl)ccc21 [Compound 69, 6-chloro-3-[(2R)-3-(3,4-dihydro-1H-isoquinolin-2-yl)-2-hydroxy-propyl]-1-isobutyl-quinazoline-2,4-dione]  126 nM
18. CC(C)Cn1c(=O)n(C[C@H](O)CN2CCc3ccccc3C2)c(=O)c2cc(Br)ccc21 [Compound 71, 6-bromo-3-[(2R)-3-(3,4-dihydro-1H-isoquinolin-2-yl)-2-hydroxy-propyl]-1-isobutyl-quinazoline-2,4-dione]  159 nM
19. COc1ccc2[nH]c(=O)n(C[C@H](O)CN3CCc4ccccc4C3)c(=O)c2c1 [Compound 81, 3-[(2R)-3-(3,4-dihydro-1H-isoquinolin-2-yl)-2-hydroxy-propyl]-6-methoxy-1H-quinazoline-2,4-dione]  159 nM
20. O=c1c2ccccc2n(CC2CC(F)(F)C2)c(=O)n1C[C@H](O)CN1CCc2ccccc2C1 [Compound 95, 1-[(3,3-difluorocyclobutyl)methyl]-3-[(2R)-3-(3,4-dihydro-1H-isoquinolin-2-yl)-2-hydroxy-propyl]quinazoline-2,4-dione]  164 nM
21. O=c1[nH]c2ccc(F)cc2c(=O)n1C[C@H](O)CN1CCc2ccccc2C1 [Compound 66, 3-[(2R)-3-(3,4-dihydro-1H-isoquinolin-2-yl)-2-hydroxy-propyl]-6-fluoro-1H-quinazoline-2,4-dione]  176 nM
22. CC(C)Cn1c(=O)n(CC(O)CN2CCc3ccccc3C2)c(=O)c2ccccc21 (stereo not shown) [Compound 98, 3-[3-(3,4-dihydro-1H-isoquinolin-2-yl)-2-hydroxy-propyl]-1-isobutyl-quinazoline-2,4-dione]  178 nM
23. O=c1[nH]c2ccc(Cl)cc2c(=O)n1C[C@H](O)CN1CCc2ccccc2C1 [Compound 67, 6-chloro-3-[(2R)-3-(3,4-dihydro-1H-isoquinolin-2-yl)-2-hydroxy-propyl]-1H-quinazoline-2,4-dione]  216 nM
24. O=c1[nH]c2ccccc2c(=O)n1C[C@H](O)CN1CCc2ccccc2C1 [Compound 64, 3-[(2R)-3-(3,4-dihydro-1H-isoquinolin-2-yl)-2-hydroxy-propyl]-1H-quinazoline-2,4-dione]  360 nM
25. COCCn1c(=O)n(CC(O)CN2CCc3ccccc3C2)c(=O)c2ccccc21 (stereo not shown) [Compound 65, 3-[3-(3,4-dihydro-1H-isoquinolin-2-yl)-2-hydroxy-propyl]-1-(2-methoxyethyl)quinazoline-2,4-dione]  518 nM
26. Cn1c(=O)n(CC(O)CN2CCc3ccccc3C2)c(=O)c2ccccc21 (stereo not shown) [Compound 63, 3-[3-(3,4-dihydro-1H-isoquinolin-2-yl)-2-hydroxy-propyl]-1-methyl-quinazoline-2,4-dione]  698 nM
27. N#Cc1ccc(Cn2c(=O)n(CC(O)CN3CCc4ccccc4C3)c(=O)c3ccccc32)cc1 (stereo not shown) [Compound 100, 4-[[3-[3-(3,4-dihydro-1H-isoquinolin-2-yl)-2-hydroxy-propyl]-2,4-dioxo-quinazolin-1-yl]methyl]benzonitrile]  779 nM
28. O=c1[nH]c2ccc(O)cc2c(=O)n1C[C@H](O)CN1CCc2ccccc2C1 [Compound 83, 3-[(2R)-3-(3,4-dihydro-1H-isoquinolin-2-yl)-2-hydroxy-propyl]-6-hydroxy-1H-quinazoline-2,4-dione]  840 nM
29. O=c1[nH]c2ccccc2c(=O)n1CC(O)CN1CCc2ccccc2C1 (stereo not shown) [Compound 61, 3-[3-(3,4-dihydro-1H-isoquinolin-2-yl)-2-hydroxy-propyl]-1H-quinazoline-2,4-dione]  876 nM
30. O=c1c2ccccc2n(CC2CCOCC2)c(=O)n1CC(O)CN1CCc2ccccc2C1 (stereo not shown) [Compound 105, 3-[3-(3,4-dihydro-1H-isoquinolin-2-yl)-2-hydroxy-propyl]-1-(tetrahydropyran-4-ylmethyl)quinazoline-2,4-dione]  903 nM
31. O=c1c2ccccc2n(Cc2ccc(Cl)cc2)c(=O)n1C[C@H](O)CN1CCc2ccccc2C1 (stereo in doubt) [Compound 96, 1-[(4-chlorophenyl)methyl]-3-[3-(3,4-dihydro-1H-isoquinolin-2-yl)-2-hydroxy-propyl]quinazoline-2,4-dione]  1060 nM
32. CC(C)Cn1c(=O)n(C[C@@H](O)CN2CCc3ccccc3C2)c(=O)c2ccccc21 [Compound 101, 3-[(2S)-3-(3,4-dihydro-1H-isoquinolin-2-yl)-2-hydroxy-propyl]-1-isobutyl-quinazoline-2,4-dione]  4490 nM
33. COc1ccc(Cn2c(=O)c3ccccc3n(CC(O)CN3CCc4ccccc4C3)c2=O)cc1 (stereo not shown) [Compound 97, 1-[3-(3,4-dihydro-1H-isoquinolin-2-yl)-2-hydroxy-propyl]-3-[(4-methoxyphenyl)methyl]quinazoline-2,4-dione]  9410 nM
34. O=c1[nH]c2ccccc2c(=O)n1C[C@@H](O)CN1CCc2ccccc2C1 [Compound 62, 3-[(2S)-3-(3,4-dihydro-1H-isoquinolin-2-yl)-2-hydroxy-propyl]-1H-quinazoline-2,4-dione]  13400 nM

— US20250084060A1, “PRMT5 INHIBITORS AND METHODS OF TREATMENT” (HANGZHOU UNOGEN BIOTECH, LTD., priority 2022, published 2025)
